According to patent publication US6638973B2, “Taxane formulations” (FSU Research Foundation, Inc., priority 2000, dated 2003):

test system: HCT116 cells; assay: In vitro cytotoxicity measured by the cell colony formation assay; type: cell-based; settings: HCT116 cells, 72 h drug incubation, colonies counted after 7 days; ID50 = drug concentration producing 50% inhibition of colony formation; read-out: IN VITRO ID 50 (nm) HCT116
Method: (§1) Four hundred cells (HCT116) were plated in 60 mm Petri dishes containing 2.7 mL of medium (modified McCoy's 5a medium containing 10% fetal bovine serum and 100 units/mL penicillin and 100 µg/mL streptomycin). The cells were incubated in a CO2 incubator at 37° C. for 5 h for attachment to the bottom of Petri dishes. The compounds identified in Example 2 were made up fresh in medium at ten times the final concentration, and then 0.3 mL of this stock solution was added to the 2.7 mL of medium in the dish. The cells were then incubated with drugs for 72 h at 37° C. At the end of incubation the drug-containing media were decanted, the dishes were rinsed with 4 mL of Hank's Balance Salt Solution (HBSS), 5 mL of fresh medium was added, and the dishes were returned to the incubator for colony formation. The cell colonies were counted using a colony counter after incubation for 7 days.
as §1, with “Example 7” for “Example 2”
as §1, with “Example 22” for “Example 2”
as §1, with “Example 27” for “Example 2”
Four hundred cells (HCT116) were plated in 60 mm Petri dishes containing 2.7 mL of medium (modified McCoy's 5a medium containing 10% fetal bovine serum and 100 units/mL penicillin and 100 µg/mL streptomycin). The cells were incubated in a CO2 incubator at 37° C. for 5 h for attachment to the bottom of Petri dishes. […]

`CCNC(=O)O[C@H]1C[C@H]2OC[C@@]2(OC(C)=O)C2[C@H](OC(=O)c3ccccc3)[C@]3(O)C[C@H](OC(=O)[C@H](O)[C@@H](NC(=O)OC(C)(C)C)c4ccco4)C(C)=C([C@@H](O)C(=O)[C@@]21C)C3(C)C` (stereo partly shown) [Compound 6696] showed an IC50 of less than 1 nM.

same assay, conditions: HCT116 cells, 72 h incubation with drug, colonies counted after 7 days; ID50 = drug concentration producing 50% inhibition of colony formation; read-out: IN VITRO ID 50 (nm) HCT116

`CCOC(=O)O[C@H]1C(=O)[C@@]2(C)C([C@H](OC(=O)c3ccccc3)[C@]3(O)C[C@H](OC(=O)[C@H](O)[C@@H](NC(=O)OC(C)(C)C)c4ccncc4)C(C)=C1C3(C)C)[C@]1(OC(C)=O)CO[C@@H]1C[C@@H]2O` (stereo partly shown) [Compound 1811] and `CCOC(=O)O[C@H]1C(=O)[C@@]2(C)C([C@H](OC(=O)c3ccccc3)[C@]3(O)C[C@H](OC(=O)[C@H](O)[C@@H](NC(=O)OC(C)(C)C)c4ccccn4)C(C)=C1C3(C)C)[C@]1(OC(C)=O)CO[C@@H]1C[C@@H]2O` (stereo partly shown) [Compound 1799] cannot be ordered by IC50: less than 1 nM for the first, less than 1 nM for the second.

`CCOC(=O)O[C@H]1C(=O)[C@@]2(C)C([C@H](OC(=O)c3ccccc3)[C@]3(O)C[C@H](OC(=O)[C@H](O)[C@@H](NC(=O)OC(C)(C)C)C4CC4)C(C)=C1C3(C)C)[C@]1(OC(C)=O)CO[C@@H]1C[C@@H]2O` (stereo partly shown) [Compound 5171] and `COC(=O)O[C@H]1C[C@H]2OC[C@@]2(OC(C)=O)C2[C@H](OC(=O)c3ccccc3)[C@]3(O)C[C@H](OC(=O)[C@H](O)[C@@H](NC(=O)OC(C)(C)C)C4CC4)C(C)=C([C@@H](O)C(=O)[C@@]21C)C3(C)C` (stereo partly shown) [Compound 4566] cannot be ordered by IC50: less than 1 nM for the first, less than 1 nM for the second.

`COC(=O)O[C@H]1C[C@H]2OC[C@@]2(OC(C)=O)C2[C@H](OC(=O)c3ccccc3)[C@]3(O)C[C@H](OC(=O)[C@H](O)[C@@H](NC(=O)C=C(C)C)c4cccs4)C(C)=C([C@@H](O)C(=O)[C@@]21C)C3(C)C` (stereo partly shown) [Compound 4244] and `C/C=C/C(=O)N[C@@H](c1cccs1)[C@@H](O)C(=O)O[C@H]1C[C@@]2(O)[C@@H](OC(=O)c3ccccc3)C3[C@](C)(C(=O)[C@H](O)C(=C1C)C2(C)C)[C@@H](OC(=O)OCc1ccccc1)C[C@H]1OC[C@@]31OC(C)=O` (stereo partly shown) [Compound 6566] cannot be ordered by IC50: less than 1 nM for the first, less than 10 nM for the second.

`COC(=O)O[C@H]1C(=O)[C@@]2(C)C([C@H](OC(=O)c3ccccc3)[C@]3(O)C[C@H](OC(=O)[C@H](O)[C@H](C=C(C)C)NC(=O)OC(C)(C)C)C(C)=C1C3(C)C)[C@]1(OC(C)=O)CO[C@@H]1C[C@@H]2O` (stereo partly shown) [Compound 1999] and `COC(=O)O[C@H]1C[C@H]2OC[C@@]2(OC(C)=O)C2[C@H](OC(=O)c3ccccc3)[C@]3(O)C[C@H](OC(=O)[C@H](O)[C@@H](NC(=O)OC(C)(C)C)c4ccoc4)C(C)=C([C@@H](O)C(=O)[C@@]21C)C3(C)C` (stereo partly shown) [Compound 4434] cannot be ordered by IC50: less than 1 nM for the first, less than 1 nM for the second.

`CCOC(=O)O[C@H]1C[C@H]2OC[C@@]2(OC(C)=O)C2[C@H](OC(=O)c3ccccc3)[C@]3(O)C[C@H](OC(=O)[C@H](O)[C@@H](NC(=O)OCC(C)C)c4ccoc4)C(C)=C([C@@H](O)C(=O)[C@@]21C)C3(C)C` (stereo partly shown) [Compound 4624] and `CC(=O)O[C@H]1C[C@H]2OC[C@@]2(OC(C)=O)C2[C@H](OC(=O)c3ccccc3)[C@]3(O)C[C@H](OC(=O)[C@H](O)[C@@H](NC(=O)OC(C)(C)C)C4CC4)C(C)=C([C@@H](O)C(=O)[C@@]21C)C3(C)C` (stereo partly shown) [Compound 4555] cannot be ordered by IC50: less than 10 nM for the first, less than 1 nM for the second.

same assay, conditions: HCT116 colony formation; 72 h drug incubation, colonies counted after 7 days; Example 5, C-7 ester/C-10 hydroxy taxanes; read-out: IN VITRO ID 50 (nm) HCT116

`CCC(=O)O[C@H]1C[C@H]2OC[C@@]2(OC(C)=O)C2[C@H](OC(=O)c3ccccc3)[C@]3(O)C[C@H](OC(=O)[C@H](O)[C@@H](NC(=O)c4ccco4)c4cccs4)C(C)=C([C@@H](O)C(=O)[C@@]21C)C3(C)C` (stereo partly shown) [Compound 3069] and `CCCC(=O)O[C@H]1C[C@H]2OC[C@@]2(OC(C)=O)C2[C@H](OC(=O)c3ccccc3)[C@]3(O)C[C@H](OC(=O)[C@H](O)[C@@H](NC(=O)c4cccs4)c4cccs4)C(C)=C([C@@H](O)C(=O)[C@@]21C)C3(C)C` (stereo partly shown) [Compound 4388] cannot be ordered by IC50: less than 1 nM for the first, less than 1 nM for the second.

`CCCC(=O)O[C@H]1C[C@H]2OC[C@@]2(OC(C)=O)C2[C@H](OC(=O)c3ccccc3)[C@]3(O)C[C@H](OC(=O)[C@H](O)[C@@H](NC(=O)OC(C)(C)C)c4ccsc4)C(C)=C([C@@H](O)C(=O)[C@@]21C)C3(C)C` (stereo partly shown) [Compound 4446] and `CCCC(=O)O[C@H]1C[C@H]2OC[C@@]2(OC(C)=O)C2[C@H](OC(=O)c3ccccc3)[C@]3(O)C[C@H](OC(=O)[C@H](O)[C@@H](NC(=O)OCC(C)C)c4ccoc4)C(C)=C([C@@H](O)C(=O)[C@@]21C)C3(C)C` (stereo partly shown) [Compound 4828] cannot be ordered by IC50: less than 1 nM for the first, less than 10 nM for the second.

For `CCC(=O)O[C@H]1C[C@H]2OC[C@@]2(OC(C)=O)C2[C@H](OC(=O)c3ccccc3)[C@]3(O)C[C@H](OC(=O)[C@H](O)[C@@H](NC(=O)OC(C)(C)C)C4CCC4)C(C)=C([C@@H](O)C(=O)[C@@]21C)C3(C)C` (stereo partly shown) [Compound 1447], the IC50 was less than 10 nM.

same assay, conditions: HCT116 colony formation; 72 h drug incubation, colonies counted after 7 days; Example 10, C-10 ester/C-7 hydroxy taxanes; read-out: IN VITRO ID 50 (nm) HCT116

`CCC(=O)O[C@H]1C(=O)[C@@]2(C)C([C@H](OC(=O)c3ccccc3)[C@]3(O)C[C@H](OC(=O)[C@H](O)[C@@H](NC(=O)OC(C)(C)C)c4ccoc4)C(C)=C1C3(C)C)[C@]1(OC(C)=O)CO[C@@H]1C[C@@H]2O` (stereo partly shown) [Compound 5495] and `CC(=O)O[C@@]12CO[C@@H]1C[C@H](O)[C@@]1(C)C(=O)[C@H](OC(=O)C3CC3)C3=C(C)[C@@H](OC(=O)[C@H](O)[C@@H](NC(=O)OC(C)(C)C)c4cccs4)C[C@@](O)([C@@H](OC(=O)c4ccccc4)C12)C3(C)C` (stereo partly shown) [Compound 0854] cannot be ordered by IC50: less than 1 nM for the first, less than 1 nM for the second.

`CCCC(=O)O[C@H]1C(=O)[C@@]2(C)C([C@H](OC(=O)c3ccccc3)[C@]3(O)C[C@H](OC(=O)[C@H](O)[C@@H](NC(=O)OCC(C)C)c4ccco4)C(C)=C1C3(C)C)[C@]1(OC(C)=O)CO[C@@H]1C[C@@H]2O` (stereo partly shown) [Compound 3110] and `CCOC(=O)N[C@@H](c1cccs1)[C@@H](O)C(=O)O[C@H]1C[C@@]2(O)[C@@H](OC(=O)c3ccccc3)C3[C@](C)(C(=O)[C@H](OC(=O)C4CC4)C(=C1C)C2(C)C)[C@@H](O)C[C@H]1OC[C@@]31OC(C)=O` (stereo partly shown) [Compound 4051] cannot be ordered by IC50: less than 1 nM for the first, less than 1 nM for the second.

`CC(=O)OC12COC1CC(O)C1(C)C(=O)C(OC(=O)c3cccs3)C3=C(C)C(OC(=O)C(O)C(NC(=O)OC(C)(C)C)C(C)C)CC(O)(C(OC(=O)c4ccccc4)C21)C3(C)C` (stereo not shown) [Compound 1964] and `CC(=O)OC12COC1CC(O)C1(C)C(=O)C(OC(=O)c3cccs3)C3=C(C)C(OC(=O)C(O)C(NC(=O)OC(C)(C)C)c4ccccn4)CC(O)(C(OC(=O)c4ccccc4)C21)C3(C)C` (stereo not shown) [Compound 1883] cannot be ordered by IC50: less than 10 nM for the first, less than 10 nM for the second.

`CC(=O)O[C@@]12CO[C@@H]1C[C@H](O)[C@@]1(C)C(=O)[C@H](OC(=O)C3CC3)C3=C(C)[C@@H](OC(=O)[C@H](O)[C@H](C=C(C)C)NC(=O)c4ccccc4)C[C@@](O)([C@@H](OC(=O)c4ccccc4)C12)C3(C)C` (stereo partly shown) [Compound 0890] and `CC(=O)O[C@@]12CO[C@@H]1C[C@H](O)[C@@]1(C)C(=O)[C@H](OC(=O)C3CC3)C3=C(C)[C@@H](OC(=O)[C@H](O)[C@@H](NC(=O)OC(C)C)c4cccs4)C[C@@](O)([C@@H](OC(=O)c4ccccc4)C12)C3(C)C` (stereo partly shown) [Compound 3071] cannot be ordered by IC50: less than 1 nM for the first, less than 1 nM for the second.

Work on `CC(=O)O[C@@]12CO[C@@H]1C[C@H](O)[C@@]1(C)C(=O)[C@H](OC(=O)C=C(C)C)C3=C(C)[C@@H](OC(=O)[C@H](O)[C@H](C=C(C)C)NC(=O)OC(C)(C)C)C[C@@](O)([C@@H](OC(=O)c4ccccc4)C12)C3(C)C` (stereo partly shown) [Compound 2455] yielded an IC50 of less than 10 nM.
